Patent US20260374739A1, “SMALL MOLECULAR WEIGHT CHEMICAL COMPOUND TO ANTAGONIZE EPH-EPHRIN TETRAMERIZATION AND INHIBIT BIDIRECTIONAL SIGNALING” (THE BOARD OF REGENTS OF THE UNIVERSITY OF TEXAS SYSTEM, priority 2022, published 2026)

Target: T1, EphB4-Fc with EB2-His (Mus musculus, UniProt P54761)
T1 construct: soluble EphB ectodomains conjugated to Fc from R&D Systems; mouse EB2-His residues 18-232; purchased R&D Systems (EphB-Fc); Sino Biologicals (EphrinB-His)
T1 sequence (P54761 16-539 limits assumed): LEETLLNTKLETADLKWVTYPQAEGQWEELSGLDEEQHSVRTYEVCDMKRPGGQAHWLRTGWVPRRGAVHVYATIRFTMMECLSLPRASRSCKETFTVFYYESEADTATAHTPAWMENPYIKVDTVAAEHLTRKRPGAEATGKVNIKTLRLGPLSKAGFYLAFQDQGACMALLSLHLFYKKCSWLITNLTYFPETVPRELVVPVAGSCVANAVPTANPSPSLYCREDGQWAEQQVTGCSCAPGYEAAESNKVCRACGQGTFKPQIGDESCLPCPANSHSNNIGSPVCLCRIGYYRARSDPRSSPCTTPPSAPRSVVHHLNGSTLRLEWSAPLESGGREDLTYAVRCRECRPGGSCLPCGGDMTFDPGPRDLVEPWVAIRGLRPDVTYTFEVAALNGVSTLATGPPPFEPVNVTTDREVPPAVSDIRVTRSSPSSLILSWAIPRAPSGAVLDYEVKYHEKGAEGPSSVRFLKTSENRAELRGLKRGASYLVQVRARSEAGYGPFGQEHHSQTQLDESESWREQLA
Assay: Alpha assay EphB4-EB2
Format: binding
Settings: for antagonism of EphB4-EB2 interaction: Alpha, ELISA, pulldown
Protocol: FIG. 5D depicts results from an alpha assay using EphB2-Fc or EphB4-Fc with EB2-His and increasing A20 concentrations to calculate IC50 determination (~10 μM, similar to that found in FIG. 5C).
Protein interaction assays were developed using soluble EphB ectodomains conjugated to Fc from R&D Systems (e.g., rat EphB1-Fc residues 18-538, which is 99.4% identical to human) and EphrinB ectodomains conjugated to His from Sino Biologicals (e.g., mouse EB2-His residues 18-232, which is 97.7% identical to human). Titrating concentrations of the EphB1-Fc ectodomain (or unconjugated Fc protein as negative control) was added with titrating amounts of the three different EphrinB ectodomains (EB1-His, EB2-His, or EB3-His) with 125 ng each of the Protein A donor, anti-6×-His acceptor beads, 2% DMSO, and 1× HiBlock buffer (all from PerkinElmer) in 384 well plates, and after 3 hr incubation at RT were read in an Envision Multilabel Reader 2102. […] No signal above background (<1,500) was detected for wells that contained an Fc control protein and the EB-His proteins or just the EphB1-Fc protein and no EB-His protein.
A20, E13, and other compounds from the top 32 hits were then characterized in pulldown assays. EphB1-Fc was immobilized onto Protein A agarose beads, then mixed with compounds and the soluble EB2-His ectodomain for 1 hr at RT, after which protein complexes were washed and then bound EB2 was detected by immunoblot using anti-His antibodies.

Row | SMILES | antagonism of EphB4-EB2 interaction | IC50 (EphB4-EB2)
1 | Oc1c(Cl)cc(CN2CCOCC2)c2cccnc12 [Compound 3, 7-chloro-5-(morpholinomethyl)quinolin-8-ol] | very little if any effect on the EphB4-EB2 interaction | –
2 | Oc1c(Br)cc(CN2CCOCC2)c2cccnc12 [Compound 5, 7-bromo-5-(morpholinomethyl)quinolin-8-ol] | – | > 150 µM
3 | COc1ccccc1N1CCN(Cc2cc(Br)c(O)c3ncccc23)CC1 [Compound 70, 7-bromo-5-((4-(2-methoxyphenyl)piperazin-1-yl)methyl)quinolin-8-ol] | very little if any effect on the EphB4-EB2 interaction | –
